Test results published in the NIST ThermoML archive (doi:10.1021/je300762m).
Values joined by “and” are separate entries in the source; they are usually repeats but may differ in a detail not shown here. Identical values can stand only once.

Experiments:
[1] = molar heat capacity at constant pressure; settings: Liquid, Large sample (1 g) DSC
[2] = molar heat capacity at constant pressure; xn = mol fraction of the nth substance listed; settings: 100 kPa, Liquid, Large sample (1 g) DSC, x1 = 0.38

CC [ethane]
[1]
Settings	molar heat capacity at constant pressure [J/K/mol]
108.15 K, 1050 kPa	67.9
108.15 K, 2020 kPa	67.87
108.15 K, 4290 kPa	67.78
118.15 K, 1060 kPa	68.26
118.15 K, 2030 kPa	67.63
118.15 K, 4290 kPa	68.95
128.15 K, 4310 kPa	68.65
143.15 K, 4080 kPa	68.62
153.15 K, 4070 kPa	69.94
163.15 K, 4050 kPa	70.84
188.15 K, 1120 kPa	73.46
188.15 K, 4310 kPa	72.41
228.15 K, 1170 kPa	81.04
228.15 K, 4320 kPa	80.07
238.15 K, 1210 kPa	83.71
238.15 K, 4330 kPa	82.72

CCCCCCC [heptane]
[1], 100 kPa
Settings	molar heat capacity at constant pressure
228.15 K	202.31 J/K/mol and 201.51 J/K/mol
238.15 K	206.22 J/K/mol and 205.11 J/K/mol
303.15 K	225.96 J/K/mol and 225.25 J/K/mol
313.15 K	229.16 J/K/mol and 230.87 J/K/mol

C [methane]
[1]
Settings	molar heat capacity at constant pressure [J/K/mol]
108.15 K, 4230 kPa	54.4
108.15 K, 6300 kPa	54.11
118.15 K, 4270 kPa	55.54
118.15 K, 6350 kPa	55.11
128.15 K, 4330 kPa	57.03
128.15 K, 6400 kPa	56.66
143.15 K, 4350 kPa	59.37
153.15 K, 4340 kPa	63.24
153.15 K, 6340 kPa	60.98
163.15 K, 4390 kPa	67.7
163.15 K, 6470 kPa	64.51
173.15 K, 4380 kPa	77.87
173.15 K, 6450 kPa	70.97

CCC [propane]
[1]
Settings	molar heat capacity at constant pressure [J/K/mol]
108.15 K, 1160 kPa	84.97
108.15 K, 3680 kPa	86.69
108.15 K, 5160 kPa	86.65
108.15 K, 5330 kPa	84.8
118.15 K, 1170 kPa	84.75
118.15 K, 3650 kPa	87.09
118.15 K, 5180 kPa	87.04
118.15 K, 5430 kPa	85.46
128.15 K, 1180 kPa	85.28
128.15 K, 3640 kPa	86.65
128.15 K, 3670 kPa	86.3
128.15 K, 5190 kPa	86.56
128.15 K, 5430 kPa	85.55
143.15 K, 1130 kPa	86.43
143.15 K, 3690 kPa	86.69
143.15 K, 5180 kPa	86.56
153.15 K, 1190 kPa	87.62
153.15 K, 5200 kPa	88.68
163.15 K, 1170 kPa	87.97
163.15 K, 5210 kPa	89.34
188.15 K, 1190 kPa	91.15
188.15 K, 5220 kPa	91.1
228.15 K, 1150 kPa	98.73
228.15 K, 3670 kPa	98.42
228.15 K, 5220 kPa	98.11
238.15 K, 1110 kPa	101.24
238.15 K, 3680 kPa	100.71
238.15 K, 5220 kPa	100.63
248.15 K, 1160 kPa	103.58
248.15 K, 3670 kPa	102.17
248.15 K, 5190 kPa	101.46
258.15 K, 1160 kPa	105.65
258.15 K, 3680 kPa	104.11
258.15 K, 5220 kPa	103.76

Cc1ccccc1 [toluene]
[1], 100 kPa
Settings	molar heat capacity at constant pressure
228.15 K	138.39 J/K/mol and 139.13 J/K/mol
238.15 K	140.79 J/K/mol and 140.97 J/K/mol
303.15 K	159.03 J/K/mol and 157.65 J/K/mol
313.15 K	162.35 J/K/mol and 161.98 J/K/mol

Cc1ccccc1 [toluene] + CCCCCCC
[2]
Settings	molar heat capacity at constant pressure [J/K/mol]
228.15 K	166.3
238.15 K	168.05
303.15 K	185.24
313.15 K	189.52
